Experimental findings from patent US4472305A, “Hexapeptide amides” (Sterling Drug Inc., priority 1983, dated 1984) are described below.

One may read the IC50 as the point on the concentration scale where inhibition reaches its midpoint. For orientation: inhibition means the drop in the measured response relative to a control, in per cent.

“And” between values parts separate entries of the source, which are not always exact repeats. Identical values can stand only once. Non-standard residues stand in square brackets, D forms with d. Residues, ends and D or L forms follow the SMILES beside them. dNMeW = CN[C@H](Cc1c[nH]c2ccccc12)C(=O)O; NMeF = CN[C@@H](Cc1ccccc1)C(=O)O; hPhe = N[C@@H](CCc1ccccc1)C(=O)O; NMeL = CN[C@@H](CC(C)C)C(=O)O; NMeNle = CCCC[C@H](NC)C(=O)O; NMeM = CN[C@@H](CCSC)C(=O)O; Nle = CCCC[C@H](N)C(=O)O

The target of assay [1] is T1, SP receptor (Rattus norvegicus, UniProt P14600).
T1 construct: from tissue; host or cells: rat submaxillary gland (crude tissue suspension)
The assay is described as follows: 3H-SP binding test, rat submaxillary gland tissue. The following applies: for IC50: 3H-SP Binding IC50(μM), rat submaxillary gland tissue (Examples 1-34); for inhibition at 30 µM: read-out: 3H-SP Binding % Inhibition. As for the experimental part:
(§1) Crude rat submaxillary gland or brain tissue is suspended in buffer containing protease inhibitors (and calcium ions and magnesium ions in the case of brain tissue) and incubated under nitrogen atmosphere with ^3 H-SP and test compound. The bound SP is then separated from free SP by filtration and quantitated by liquid scintillation spectroscopy. This test meets the criteria of reversibility, saturability, sensitivity to known SP agonists and antagonists, and specificity for an SP receptor binding assay.
(§2) With regard to reversibility, addition of unlabelled SP causes a gradual decrease in bound ^3 H-SP, showing that SP is not irreversibly bound to the receptors in the tissue. With regard to saturability, the amount of bound ^3 H-SP in the preparation increases in direct proportion to the concentration of ^3 H-SP added until a saturation point is reached. […] With regard to sensitivity, known SP agonists and antagonists inhibit ^3 H-SP binding.
(§3) The results are expressed either as percent inhibition at a concentration of 30 micromoles per liter (μM) or as an IC50 calculated as the concentration in micromoles per liter.
(§4) The ^3 H-SP binding test results were obtained using rat submaxillary gland tissue for Examples 1-34 and rat brain tissue for Examples 35-42.

In assay [2] the test system is longitudinal muscle of guinea pig terminal ileum. Put plainly: Guinea pig ileum test (SP agonist and antagonist effect). Format: cell-based. The following applies: for Guinea Pig Ileum pA2: antagonism of reference agonist, Schild plot analysis; for Guinea Pig Ileum % Agonism (potency relative to SP): contraction of ileum longitudinal muscle strips, relative molar potency vs SP. As for the experimental part: Strips of longitudinal muscle derived from terminal ileum of adult male guinea pigs (Charles River, 400-600 g.) are mounted in 5-ml. organ baths containing oxygenated Krebs solution containing 1 μM each of atropine and pyrilamine maintained at 30-33 C. and connected to isometric transducers. Following tissue equilibration and repeated washing (45-60 min.), SP or an appropriate reference agonist is added cumulatively to the bath and contractions of the tissue are recorded. The bath is washed thoroughly and 30-45 min. is allowed to elapse before construction of a second reference agonist curve to assure reproducibility of the responses. Test compounds are similarly evaluated for agonist activity up to a maximum concentration of 10-100 μM. […] When appropriate, relative molar potency ratios are calculated (EC50 reference/ED50 test drug). […] The effects of several concentrations of test antagonist, pooled across separate experiments, provide dose-ratio (EC50 shift) data for a standard Schild plot analysis, with computation of the pA2.

In the next assay the test system is rat vas deferens. Put plainly: Rat vas deferens test (SP antagonist effect). It is filed as cell-based. As to conditions: reversal of potentiation by 10 μM SP of electrically induced contractions. As for the experimental part: Rat vasa deferentia are suspended in organ baths containing warmed, oxygenated Krebs solution and repetitively field-stimulated (0.1 Hz., 1 msec. duration, monophasic pulses) through platinum wire ring electrodes. Rapid, regular contractions of the muscle are recorded via transducers on a Grass polygraph. SP and related tachykinins added to the bath evoke a dose-dependent, stable potentiation of these electrically-induced contractions. For routine screening, a 10 μM concentration of SP is applied to all tissues to produce a 2-6 fold increase in electrically-stimulated twitch height. SP antagonist compounds (1-30 μM) produce an immediate, dose-related reversal of the response of the tissue to SP, which is quantified by determination of an IC50.

Assay [3] deals with T1, SP receptor. The assay is described as follows: 3H-SP binding test, rat brain tissue. The following applies: rat brain tissue (Examples 35-42); for inhibition at 30 µM: 30 μM test compound. As for the experimental part:
as §1, §2, §3, §4

T1 sequence (P14600 whole entry): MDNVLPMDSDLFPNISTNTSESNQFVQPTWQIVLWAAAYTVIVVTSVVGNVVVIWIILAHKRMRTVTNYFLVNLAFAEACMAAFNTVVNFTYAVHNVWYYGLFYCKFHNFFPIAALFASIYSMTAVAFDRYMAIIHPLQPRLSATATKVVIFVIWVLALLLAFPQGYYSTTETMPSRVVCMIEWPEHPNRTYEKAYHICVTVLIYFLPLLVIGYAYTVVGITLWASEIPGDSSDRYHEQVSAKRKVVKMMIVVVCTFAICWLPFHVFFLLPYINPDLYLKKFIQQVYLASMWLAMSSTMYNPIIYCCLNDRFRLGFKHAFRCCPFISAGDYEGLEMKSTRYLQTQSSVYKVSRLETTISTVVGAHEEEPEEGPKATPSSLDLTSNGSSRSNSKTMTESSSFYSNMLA

For `CSCC[C@H](NC(=O)[C@H](CC(C)C)NC(=O)[C@@H](Cc1c[nH]c2ccccc12)NC(=O)[C@H](Cc1ccccc1)NC(=O)[C@@H](Cc1ccccc1)NC(=O)[C@@H]1CCCN1)C(N)=O` [Example 12, HPro-DPhe-Phe-DTrp-Leu-MetNH2] (H-P[dF]F[dW]LM-NH2), on SP receptor [1], the IC50 was 26.8 µM and the inhibition at 30 µM amounted to 69%. In addition, in assay [2], the “Guinea Pig Ileum pA2” value is 5.6 and the “Guinea Pig Ileum % Agonism (potency relative to SP)” value amounted to 0.0001%. Moreover, the IC50 in the assay with rat vas deferens stood at 13 µM.
With `CSCC[C@H](NC(=O)[C@H](CC(C)C)NC(=O)[C@@H](Cc1c[nH]c2ccccc12)NC(=O)[C@H](Cc1ccccc1)NC(=O)[C@@H](Cc1c[nH]c2ccccc12)NC(=O)[C@@H]1CCCN1)C(N)=O` [Example 17, HPro-DTrp-Phe-DTrp-Leu-MetNH2] (H-P[dW]F[dW]LM-NH2), at SP receptor [1], the IC50 was 9.7 µM and 16.1 µM. In assay [2], the “Guinea Pig Ileum pA2” value is 5.7 and the “Guinea Pig Ileum % Agonism (potency relative to SP)” value is listed as under 0.01%. Besides, the IC50 in the assay on rat vas deferens came to 4.1 µM.
For the molecule `CSCC[C@H](NC(=O)[C@H](CC(C)C)NC(=O)[C@@H](Cc1ccccc1)NC(=O)[C@H](Cc1ccccc1)NC(=O)[C@@H](Cc1ccccc1)NC(=O)[C@@H]1CCCN1)C(N)=O` [Example 23, HPro-DPhe-Phe-DPhe-Leu-MetNH2] (H-P[dF]F[dF]LM-NH2), the inhibition at 30 µM at SP receptor [1] stood at 53%. Besides, in assay [2], the “Guinea Pig Ileum pA2” value came to 5.4 and the “Guinea Pig Ileum % Agonism (potency relative to SP)” value was under 0.001%. Besides, the 50% inhibitory concentration (IC50) in the assay with rat vas deferens amounted to 20 µM.
With `CSCC[C@H](NC(=O)[C@H](CC(C)C)NC(=O)[C@@H](Cc1ccccc1)NC(=O)[C@H](CCc1ccccc1)NC(=O)[C@@H](Cc1ccccc1)NC(=O)[C@@H]1CCCN1)C(N)=O` [Example 29, HPro-DPhe-Hfe-DPhe-Leu-MetNH2] (H-P[dF][hPhe][dF]LM-NH2), the inhibition at 30 µM on SP receptor [1] came to 64%. Besides, the IC50 in the assay on rat vas deferens was over 40 µM.
Taken in the same sequence, the figures for `CCCC[C@H](NC(=O)[C@H](CC(C)C)NC(=O)[C@@H](Cc1ccccc1)NC(=O)[C@H](Cc1ccccc1)NC(=O)[C@@H](Cc1ccccc1)NC(=O)[C@@H]1CCCN1)C(N)=O` [Example 31, HPro-DPhe-Phe-DPhe-Leu-NleNH2] (H-P[dF]F[dF]L[Nle]-NH2) were 47% and 30 µM.
With `CSCC[C@H](NC(=O)[C@H](CC(C)C)N(C)C(=O)[C@@H](Cc1c[nH]c2ccccc12)NC(=O)[C@H](Cc1ccccc1)NC(=O)[C@@H](Cc1c[nH]c2ccccc12)NC(=O)[C@@H]1CCCN1)C(N)=O` [Example 35, HPro-DTrp-Phe-DTrp-MeLeu-MetNH2] (H-P[dW]F[dW][NMeL]M-NH2), on SP receptor [3], at 30 µM the inhibition was 46% and the IC50 was determined as 43.6 µM. In assay [2], the “Guinea Pig Ileum pA2” value is 6.3.
On the same counts, the results for `CSCC[C@@H](C(N)=O)N(C)C(=O)[C@H](CC(C)C)NC(=O)[C@@H](Cc1c[nH]c2ccccc12)NC(=O)[C@H](Cc1ccccc1)NC(=O)[C@@H](Cc1c[nH]c2ccccc12)NC(=O)[C@@H]1CCCN1` [Example 36, HPro-DTrp-Phe-DTrp-Leu-MeMetNH2] (H-P[dW]F[dW]L[NMeM]-NH2) are 82%, 11.5 µM and 6.3.
On SP receptor [3], `CSCC[C@H](NC(=O)[C@H](CC(C)C)NC(=O)[C@@H](Cc1c[nH]c2ccccc12)NC(=O)CNC(=O)[C@@H](Cc1c[nH]c2ccccc12)NC(=O)[C@@H]1CCCN1)C(N)=O` [Example 39, HPro-DTrp-Gly-DTrp-Leu-MetNH2] (H-P[dW]G[dW]LM-NH2) displayed an inhibition at 30 µM of 46%.
The same measure, in the same setting: the result for `CSCC[C@H](NC(=O)[C@H](CC(C)C)NC(=O)CNC(=O)[C@H](Cc1ccccc1)NC(=O)[C@H](Cc1ccccc1)N(C)C(=O)[C@@H]1CCCN1)C(N)=O` [Example 40, HPro-MePhe-Phe-Gly-Leu-MetNH2] (H-P[NMeF]FGLM-NH2) reads 9%.
At SP receptor [3], `CSCC[C@H](NC(=O)[C@H](CC(C)C)NC(=O)[C@@H](Cc1c[nH]c2ccccc12)N(C)C(=O)[C@H](Cc1ccccc1)NC(=O)[C@@H](Cc1c[nH]c2ccccc12)NC(=O)[C@@H]1CCCN1)C(N)=O` [Example 41, HPro-DTrp-Phe-MeDTrp-Leu-MetNH2] (H-P[dW]F[dNMeW]LM-NH2) gave an inhibition at 30 µM of 79% and an IC50 of 13.3 µM.
`CCCC[C@@H](C(N)=O)N(C)C(=O)[C@H](CC(C)C)NC(=O)[C@@H](Cc1c[nH]c2ccccc12)NC(=O)[C@H](Cc1ccccc1)NC(=O)[C@@H](Cc1c[nH]c2ccccc12)NC(=O)[C@@H]1CCCN1` [Example 42, HPro-DTrp-Phe-DTrp-Leu-MeNleNH2] (H-P[dW]F[dW]L[NMeNle]-NH2) had an inhibition at 30 µM on SP receptor [3] of 81%.
